From ChEMBL document CHEMBL5303573, “Mapping human microbiome drug metabolism by gut bacteria and their genes” (Nature, 2019)

Tests used:
[1] = The drug is tested on Clostridium spiroforme strain: DSM1552 for biotransformation. The drug concentrations were measured before and after a 12-h incubation by liquid-chromatography-coupled mass spectrometry (LC–MS); conditions: thomasclavelia spiroformis, 2 µM
[2] = molecular target: T1, Sialic acid-specific acetylesterase (Bacteroides thetaiotaomicron, UniProt Q8A331); assay: (§1) The drug is tested on Bacteroides thetaiotaomicron strain: VPI-5482 for biotransformation. The drug concentrations were measured before and after a 12-h incubation by liquid-chromatography-coupled mass spectrometry (LC–MS); assay type: ADME; parameters: dose 2 uM; conditions: 2 µM
T1 sequence (Q8A331 whole entry): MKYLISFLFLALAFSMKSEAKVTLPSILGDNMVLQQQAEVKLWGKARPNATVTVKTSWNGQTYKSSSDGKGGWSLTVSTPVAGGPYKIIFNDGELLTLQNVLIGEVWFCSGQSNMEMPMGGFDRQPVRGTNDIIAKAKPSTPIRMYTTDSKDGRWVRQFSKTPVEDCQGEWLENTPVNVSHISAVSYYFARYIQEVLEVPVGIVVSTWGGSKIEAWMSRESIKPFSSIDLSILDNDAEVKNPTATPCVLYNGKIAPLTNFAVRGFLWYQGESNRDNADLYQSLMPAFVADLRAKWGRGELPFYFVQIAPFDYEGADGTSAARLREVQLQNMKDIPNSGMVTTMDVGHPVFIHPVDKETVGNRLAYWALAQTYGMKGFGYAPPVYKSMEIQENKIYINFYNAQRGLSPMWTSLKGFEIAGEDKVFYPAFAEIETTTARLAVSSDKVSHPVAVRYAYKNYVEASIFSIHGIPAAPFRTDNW

[3] = molecular target: T2, Nitroreductase-like protein (Bacteroides thetaiotaomicron, UniProt Q8AB93); assay: as §1; assay type: ADME; parameters: dose 2 uM; conditions: 2 µM
T2 sequence (Q8AB93 whole entry): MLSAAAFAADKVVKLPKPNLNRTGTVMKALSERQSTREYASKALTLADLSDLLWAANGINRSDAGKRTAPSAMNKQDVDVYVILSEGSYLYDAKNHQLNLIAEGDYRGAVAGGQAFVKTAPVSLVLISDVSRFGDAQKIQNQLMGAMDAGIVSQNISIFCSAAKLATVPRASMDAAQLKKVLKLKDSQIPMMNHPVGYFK

[4] = molecular target: T3, 3-oxo-5-alpha-steroid 4-dehydrogenase (Bacteroides thetaiotaomicron, UniProt Q8A618); assay: as §1; assay type: ADME; parameters: dose 2 uM; conditions: 2 µM
T3 sequence (Q8A618 whole entry): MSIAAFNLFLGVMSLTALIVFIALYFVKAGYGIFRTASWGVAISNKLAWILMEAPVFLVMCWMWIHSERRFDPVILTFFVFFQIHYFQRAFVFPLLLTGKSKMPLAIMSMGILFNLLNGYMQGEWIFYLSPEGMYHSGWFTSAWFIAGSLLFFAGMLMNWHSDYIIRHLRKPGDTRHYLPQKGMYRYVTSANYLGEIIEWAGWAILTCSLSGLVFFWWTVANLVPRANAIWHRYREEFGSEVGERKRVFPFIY

General stress protein = General stress protein (Bacteroides thetaiotaomicron, UniProt Q8A7U5); assay: as §1; assay type: ADME; parameters: dose 2 uM; conditions: 2 µM
Chain of General stress protein (Q8A7U5 1-138, change not shown): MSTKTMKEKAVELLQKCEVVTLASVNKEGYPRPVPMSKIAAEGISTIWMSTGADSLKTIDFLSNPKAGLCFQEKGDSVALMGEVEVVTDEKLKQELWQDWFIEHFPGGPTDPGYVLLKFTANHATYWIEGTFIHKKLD

[5] = molecular target: T4, NADH dehydrogenase/NAD(P)H nitroreductase (Bacteroides thetaiotaomicron, UniProt Q8A8L9); assay: as §1; assay type: ADME; parameters: dose 2 uM; conditions: 2 µM
T4 sequence (Q8A8L9 whole entry): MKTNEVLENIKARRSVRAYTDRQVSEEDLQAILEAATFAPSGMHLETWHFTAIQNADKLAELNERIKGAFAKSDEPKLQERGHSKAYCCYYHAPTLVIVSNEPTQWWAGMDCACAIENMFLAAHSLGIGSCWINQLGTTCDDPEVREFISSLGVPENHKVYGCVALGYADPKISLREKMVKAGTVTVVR

Nitroreductase = molecular target: T5, Nitroreductase (Bacteroides thetaiotaomicron, UniProt Q8A911); assay: as §1; assay type: ADME; parameters: dose 2 uM; conditions: 2 µM
T5 sequence (Q8A911 whole entry): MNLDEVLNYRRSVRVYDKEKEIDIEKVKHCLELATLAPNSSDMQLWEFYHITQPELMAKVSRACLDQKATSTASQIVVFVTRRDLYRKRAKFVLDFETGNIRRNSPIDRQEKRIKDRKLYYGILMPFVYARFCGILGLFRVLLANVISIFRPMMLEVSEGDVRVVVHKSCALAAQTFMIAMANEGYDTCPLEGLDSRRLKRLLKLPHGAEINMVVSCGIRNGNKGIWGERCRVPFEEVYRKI

[6] = molecular target: T6, Steroid 5-alpha reductase C-terminal domain-containing protein (Phocaeicola dorei, UniProt B6W0N3); assay: The drug is tested on Bacteroides dorei strain: DSM17855 for biotransformation. The drug concentrations were measured before and after a 12-h incubation by liquid-chromatography-coupled mass spectrometry (LC–MS); assay type: ADME; parameters: dose 2 uM; conditions: 2 µM
T6 sequence (B6W0N3 whole entry): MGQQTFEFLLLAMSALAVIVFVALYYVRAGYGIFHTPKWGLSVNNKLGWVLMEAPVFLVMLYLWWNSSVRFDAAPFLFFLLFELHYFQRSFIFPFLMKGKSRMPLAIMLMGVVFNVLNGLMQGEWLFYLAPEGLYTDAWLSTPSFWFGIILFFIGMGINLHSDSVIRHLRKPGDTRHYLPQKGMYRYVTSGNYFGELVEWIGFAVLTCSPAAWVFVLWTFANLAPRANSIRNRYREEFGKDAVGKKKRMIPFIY

Acylhydrolase = molecular target: T7, Acylhydrolase (Bacteroides thetaiotaomicron, UniProt Q8AA96); assay: as §1; assay type: ADME; parameters: dose 2 uM; conditions: 2 µM
T7 sequence (Q8AA96 whole entry): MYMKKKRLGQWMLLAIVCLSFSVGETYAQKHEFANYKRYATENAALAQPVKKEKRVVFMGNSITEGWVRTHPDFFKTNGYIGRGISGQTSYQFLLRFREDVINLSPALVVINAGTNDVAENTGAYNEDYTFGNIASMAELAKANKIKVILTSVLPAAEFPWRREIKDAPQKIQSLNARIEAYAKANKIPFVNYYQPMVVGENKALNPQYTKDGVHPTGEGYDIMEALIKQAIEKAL

[7] = molecular target: T8, Acetyl esterase (Acetylxylosidase) (Bacteroides thetaiotaomicron, UniProt Q8ABF8); assay: as §1; assay type: ADME; parameters: dose 2 uM; conditions: 2 µM
T8 sequence (Q8ABF8 whole entry): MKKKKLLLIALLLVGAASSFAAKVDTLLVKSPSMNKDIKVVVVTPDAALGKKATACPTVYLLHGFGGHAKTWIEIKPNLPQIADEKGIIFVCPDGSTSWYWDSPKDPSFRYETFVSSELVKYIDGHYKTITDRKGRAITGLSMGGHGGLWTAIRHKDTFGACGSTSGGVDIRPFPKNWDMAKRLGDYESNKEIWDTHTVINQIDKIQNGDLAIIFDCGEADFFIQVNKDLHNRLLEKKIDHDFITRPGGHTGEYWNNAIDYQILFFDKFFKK

| Structure (SMILES) | Bacterial Biotransformation [1] | Bacterial Biotransformation [2] | Bacterial Biotransformation [3] | Bacterial Biotransformation [4] | Bacterial Biotransformation (General stress protein) | Bacterial Biotransformation [5] | Bacterial Biotransformation (Nitroreductase) | Bacterial Biotransformation [6] | Bacterial Biotransformation (Acylhydrolase) | Bacterial Biotransformation [7] |
| --- | --- | --- | --- | --- | --- | --- | --- | --- | --- | --- |
| CC(C)NCC(O)COc1ccc(CCOCC2CC2)cc1 (stereo not given) [BETAXOLOL] | Compound NOT metabolized | – | – | – | – | – | – | – | – | – |
| CC(C)NCC(O)COc1ccc(CC(N)=O)cc1 (stereo not given) [ATENOLOL] | Compound NOT metabolized | – | – | – | – | – | – | – | – | – |
| CCCC(=O)Nc1ccc(OCC(O)CNC(C)C)c(C(C)=O)c1 (stereo not given) [ACEBUTOLOL] | Compound NOT metabolized | – | – | – | – | – | – | – | – | – |
| c1ccc([C@H]2CN3CCSC3=N2)cc1 [LEVAMISOLE] | Compound NOT metabolized | – | – | – | – | – | – | – | – | – |
| O=C(O)c1cc(/N=N/c2ccc(S(=O)(=O)Nc3ccccn3)cc2)ccc1O [SULFASALAZINE] | – | Compound NOT metabolized | Compound metabolized | Compound NOT metabolized | Compound metabolized | Compound NOT metabolized | Compound NOT metabolized | Compound NOT metabolized | – | – |
| CCOC(=O)C1=C(C)NC(C)=C(C(=O)OC)C1c1cccc([N+](=O)[O-])c1 (stereo not given) [NITRENDIPINE] | – | Compound NOT metabolized | Compound metabolized | Compound NOT metabolized | Compound NOT metabolized | – | Compound NOT metabolized | Compound NOT metabolized | Compound NOT metabolized | Compound NOT metabolized |
| COc1ccnc(C[S+]([O-])c2nc3ccc(OC(F)F)cc3[nH]2)c1OC (stereo not given) [PANTOPRAZOLE] | – | Compound NOT metabolized | Compound NOT metabolized | Compound NOT metabolized | Compound NOT metabolized | Compound NOT metabolized | Compound NOT metabolized | Compound NOT metabolized | Compound NOT metabolized | Compound NOT metabolized |
| Nc1ccc(/N=N/c2ccccc2)c(N)n1 [PHENAZOPYRIDINE] | – | Compound NOT metabolized | Compound NOT metabolized | Compound NOT metabolized | Compound metabolized | Compound NOT metabolized | Compound NOT metabolized | Compound NOT metabolized | Compound NOT metabolized | Compound NOT metabolized |
| CCN(CC)C(=O)/C(C#N)=C/c1cc(O)c(O)c([N+](=O)[O-])c1 [ENTACAPONE] | – | Compound NOT metabolized | Compound metabolized | Compound NOT metabolized | Compound NOT metabolized | Compound metabolized | Compound NOT metabolized | Compound NOT metabolized | Compound NOT metabolized | Compound NOT metabolized |
| CC(NC(C)(C)C)C(=O)c1cccc(Cl)c1 (stereo not given) [BUPROPION] | Compound NOT metabolized | – | – | – | – | – | – | – | – | – |
| CCS(=O)(=O)CCn1c([N+](=O)[O-])cnc1C [TINIDAZOLE] | – | Compound NOT metabolized | Compound metabolized | Compound NOT metabolized | Compound NOT metabolized | Compound metabolized | Compound metabolized | Compound NOT metabolized | Compound NOT metabolized | Compound NOT metabolized |
| COc1ccccc1OCCNCC(O)COc1cccc2[nH]c3ccccc3c12 (stereo not given) [CARVEDILOL] | Compound metabolized | – | – | – | – | – | – | – | – | – |
| O=P1(N(CCCl)CCCl)NCCCO1 (stereo not given) [CYCLOPHOSPHAMIDE ANHYDROUS] | Compound NOT metabolized | – | – | – | – | – | – | – | – | – |
| C#C[C@]1(O)CC[C@H]2[C@@H]3CCC4=Cc5oncc5C[C@]4(C)[C@H]3CC[C@@]21C [DANAZOL] | – | Compound NOT metabolized | Compound NOT metabolized | Compound NOT metabolized | Compound NOT metabolized | Compound NOT metabolized | Compound NOT metabolized | Compound NOT metabolized | Compound metabolized | Compound NOT metabolized |
| CC(=O)OCC(=O)NCCCOc1cccc(CN2CCCCC2)c1 [ROXATIDINE ACETATE] | – | Compound NOT metabolized | Compound NOT metabolized | Compound NOT metabolized | Compound NOT metabolized | Compound NOT metabolized | Compound NOT metabolized | Compound NOT metabolized | Compound metabolized | Compound metabolized |
| CC(=O)OCC(=O)[C@@]12N=C(C)O[C@@H]1C[C@H]1[C@@H]3CCC4=CC(=O)C=C[C@]4(C)[C@H]3[C@@H](O)C[C@@]12C [DEFLAZACORT] | – | – | Compound NOT metabolized | Compound NOT metabolized | Compound NOT metabolized | Compound NOT metabolized | Compound NOT metabolized | Compound NOT metabolized | Compound metabolized | Compound NOT metabolized |
| COC(=O)[C@H](c1ccccc1Cl)N1CCc2sccc2C1.O=S(=O)(O)O [CLOPIDOGREL BISULFATE] | Compound NOT metabolized | – | – | – | – | – | – | – | – | – |
| CN(C)CCC=C1c2ccccc2C=Cc2ccccc21 [CYCLOBENZAPRINE] | Compound NOT metabolized | – | – | – | – | – | – | – | – | – |
| Clc1cccc(Cl)c1N=C1NCCN1 [CLONIDINE] | Compound NOT metabolized | – | – | – | – | – | – | – | – | – |
| CCOc1cc(CC(=O)N[C@@H](CC(C)C)c2ccccc2N2CCCCC2)ccc1C(=O)O [REPAGLINIDE] | Compound NOT metabolized | – | – | – | – | – | – | – | – | – |
| CN1CCN(C2=Nc3cc(Cl)ccc3Nc3ccccc32)CC1 [CLOZAPINE] | Compound NOT metabolized | – | – | – | – | – | – | – | – | – |
| CN/C(=N/CCSCc1nc[nH]c1C)NC#N [CIMETIDINE] | Compound NOT metabolized | – | – | – | – | – | – | – | – | – |
